Data on 40 compounds can be found in patent publication US7056924B2, “Substituted heterocyclic compounds” (CV Therapeutics, Inc., priority 2002, dated 2006).

In one experiment the test system is Palmitoyl CoA oxidation in rat heart mitochondria. Put plainly: Mitochondrial assay: Palmitoyl CoA oxidation. It is filed as biochemical. As to conditions: 16 microM 1-C14 palmitoyl CoA, 15 min at 30° C., read-out: Effect of Compounds of the Invention on Palmitoyl CoA Oxidation (IC50). The protocol: Rat heart mitochondria were isolated by the method of Nedergard and Cannon (Methods in Enzymol. 55, 3, 1979).
Palmitoyl CoA oxidation—The Palmitoyl CoA oxidation was carried out in a total volume of 100 micro liters containing the following agents: 110 mM KCl, 33 mM Tris buffer at pH 8, 2 mM KPi, 2 mM MgCl2, 0.1 mM EDTA, 14.7 microM defatted BSA, 0.5 mM malic acid, 13 mM carnitine, 1 mM ADP, 52 micrograms of mitochondrial protein, and 16 microM 1-C14 palmitoyl CoA (Sp. Activity 60 mCi/mmole; 20 microCi/ml, using 5 microliters per assay). The compounds of this invention were added in a DMSO solution at the following concentrations: 100 micro molar, 30 micro molar, and 3 micro molar. In each assay, a DMSO control was used. After 15 min at 30° C., the enzymatic reaction was centrifuged (20,000 g for 1 min), and 70 microliters of the supernatant was added to an activated reverse phase silicic acid column (approximately 0.5 ml of silicic acid). The column was eluted with 2 ml of water, and 0.5 ml of the eluent was used for scintillation counting to determine the amount of C^14 trapped as C^14 bicarbonate ion.
For orientation: IC50 means the midpoint of a concentration-inhibition curve. As for “(2R)-3-{(2S)-2-methyl-4-[(5-phenylbenzoxazol-2-yl)methyl]piperazinyl}-1-(2-methylbenzothiazol-5-yloxy)propan-2-ol”, the IC50 was 2.1 µM. Regarding “(2R)-3-(2-methylbenzothiazol-5-yloxy)-1-(4-{[5-(2-methylphenyl)(1,2,4-oxadiazol-3-yl)]methyl}piperazinyl)propan-2-ol”, the 50% inhibitory concentration (IC50) amounted to 1.17 µM. On the same count and under the same terms, then “(2R)-1-(4-{[5-(2-chlorophenyl)(1,3,4-oxadiazol-2-yl)]methyl}piperazinyl)-3-(2-methylbenzothiazol-5-yloxy)propan-2-ol”, with 2.1 µM; and “(2R)-1-[(3S)-3-methyl-4-({5-[4-(trifluoromethyl)phenyl](1,2,4-oxadiazol-3-yl)}methyl)piperazinyl]-3-(2-methylbenzothiazol-5-yloxy)propan-2-ol”, with 4.7 µM; and “(2R)-3-{(2S)-2-methyl-4-[(3-(2-thienyl)(1,2,4-oxadiazol-5-yl))methyl]piperazinyl}-1-(2-methylbenzothiazol-5-yloxy)propan-2-ol”, with 0.49 µM. Same read-out and setting: then `Cc1nc2cc(OC[C@H](O)CN3CCN(Cc4cc(-c5ccc(Cl)cc5)on4)C[C@@H]3C)ccc2s1` [(2R)-3-[(2S)-2-methyl-4-({5-[4-chlorophenyl]isoxazol-3-yl}methyl)piperazinyl]-1-(2-methylbenzothiazol-5-yloxy)propan-2-ol], with 0.14 µM. The same measure, in the same setting: the same measure for “(2R)-1-(4-{[3-(2-chlorophenyl)(1,2,4-oxadiazol-5-yl)]methyl}piperazinyl)-3-(2-methylbenzothiazol-5-yloxy)propan-2-ol”: 1.34 µM; for “(2R)-1-{(2S)-2-methyl-4-[(5-(2-naphthyl)(1,3,4-oxadiazol-2-yl))methyl]piperazinyl}-3-(2-methylbenzothiazol-5-yloxy)propan-2-ol”: 1.15 µM. With “(2R)-1-{(3S)-3-methyl-4-[(2-phenyl(1,3-thiazol-4-yl))methyl]piperazinyl}-3-(2-methylbenzothiazol-5-yloxy)propan-2-ol”, the IC50 amounted to 0.34 µM. On the same count and under the same terms, then “(2R)-1-((3S)-4-{[2-(4-chlorophenyl)(1,3-thiazol-4-yl)]methyl}-3-methylpiperazinyl)-3-(2-methylbenzothiazol-5-yloxy)propan-2-ol”, with 0.41 µM; and “(2R)-3-(2-methylbenzothiazol-5-yloxy)-1-[4-({5-[3-(trifluoromethyl)phenyl](1,3,4-oxadiazol-2-yl)}methyl)piperazinyl]propan-2-ol”, with 6.3 µM. The same measure, in the same setting: then “(2R)-3-[(2S)-2-methyl-4-({5-[4-(trifluoromethyl)phenyl](1,2,4-oxadiazol-3-yl)}methyl)piperazinyl]-1-(2-methylbenzothiazol-5-yloxy)propan-2-ol”, with 0.25 µM. Same read-out and setting: then “(2R)-3-((2S)-4-{[5-(2-chlorophenyl)(1,3,4-oxadiazol-2-yl)]methyl}-2-methylpiperazinyl)-1-(2-methylbenzothiazol-5-yloxy)propan-2-ol”, with 0.34 µM; and “(2R)-3-{(3S)-3-methyl-4-[(5-(4-chlorophenyl)isoxazol-3-yl)methyl]piperazinyl}-1-(2-methylbenzothiazol-5-yloxy)propan-2-ol”, with 0.33 µM.

For the compound “(2R)-1-[4-({5-[4-(tert-butyl)phenyl](1,3,4-oxadiazol-2-yl)}methyl)piperazinyl]-3-(2-methylbenzothiazol-5-yloxy)propan-2-ol”, the IC50 came out at 1.1 µM.

On to “3-{(2R)-2-methyl-4-[(5-phenylisoxazol-3-yl)methyl]piperazinyl}(2S)-1-(2-methylbenzothiazol-5-yloxy)propan-2-ol”, for which the IC50 came out at 0.44 µM. Same read-out and setting: then “(2R)-1-(4-{[3-(2-fluorophenyl)(1,2,4-oxadiazol-5-yl)]methyl}piperazinyl)-3-(2-methylbenzothiazol-5-yloxy)propan-2-ol”, with 5.7 µM; and “(2R)-1-((2S)-2-methyl-4-{[5-(4-methylphenyl)(1,3,4-oxadiazol-2-yl)]methyl}piperazinyl)-3-(2-methylbenzothiazol-5-yloxy)propan-2-ol”, with 0.54 µM; and “(2R)-3-((3S)-3-methyl-4-{[5-(4-trifluoromethylphenyl)isoxazol-3-yl]methyl}-piperazinyl)-1-(2-methylbenzothiazol-5-yloxy)propan-2-ol”, with 0.25 µM. The same measure, in the same setting: the same measure for “(2R)-3-((2S)-4-{[5-(3,4-dichlorophenyl)isoxazol-3-yl]methyl}-2-methylpiperazinyl)-1-(2-methylbenzothiazol-5-yloxy)propan-2-ol”: 0.73 µM; for “(2R)-3-((3S)-3-methyl-4-{[5-(4-phenylphenyl)isoxazol-3-yl]methyl}piperazinyl)-1-(2-methylbenzothiazol-5-yloxy)propan-2-ol”: 0.97 µM; for “(2R)-3-(2-methylbenzothiazol-5-yloxy)-1-{4-[(5-phenyl(1,3,4-oxadiazol-2-yl))methyl]piperazinyl}propan-2-ol”: 1.1 µM. For “(2R)-3-(2-methylbenzothiazol-5-yloxy)-1-(4-{[3-(2-methylphenyl)(1,2,4-oxadiazol-5-yl)]methyl}piperazinyl)propan-2-ol”, the concentration for half-maximal inhibition (IC50) is 0.23 µM.

Turning to “(2R)-3-(2-methylbenzothiazol-5-yloxy)-1-(4-{[5-(4-methylphenyl)(1,3,4-oxadiazol-2-yl)]methyl}piperazinyl)propan-2-ol”, the IC50 is 10.7 µM.

Regarding “(2R)-1-{(2S)-2-methyl-4-[(5-phenyl(1,3,4-oxadiazol-2-yl))methyl]piperazinyl}-3-(2-methylbenzothiazol-5-yloxy)propan-2-ol”, the IC50 is 1.57 µM.

Consider `Cc1nc2cc(OC[C@H](O)CN3CCN(Cc4nnc(-c5ccc(C(F)(F)F)cc5)o4)C[C@@H]3C)ccc2s1` [(2R)-1-[(2S)-2-methyl-4-({5-[4-(trifluoromethyl)phenyl](1,3,4-oxadiazol-2-yl)}methyl)piperazinyl]-3-(2-methylbenzothiazol-5-yloxy)propan-2-ol], for which the IC50 came to 0.53 µM. On the same count and under the same terms, the same measure for “(2R)-1-((2S)-4-{[5-(4-chlorophenyl)(1,3,4-oxadiazol-2-yl)]methyl}-2-methylpiperazinyl)-3-(2-methylbenzothiazol-5-yloxy)propan-2-ol”: 0.69 µM. On the same count and under the same terms, the same measure for “(2R)-1-((3S)-4-{[5-(2,4-dichlorophenyl)(1,2,4-oxadiazol-3-yl)]methyl}-3-methylpiperazinyl)-3-(2-methylbenzothiazol-5-yloxy)propan-2-ol”: 0.68 µM; for “(2R)-1-[(2S)-2-methyl-4-({5-[3-(trifluoromethyl)phenyl](1,3,4-oxadiazol-2-yl)}methyl)piperazinyl]-3-(2-methylbenzothiazol-5-yloxy)propan-2-ol”: 1.05 µM; for “(2R)-3-[(2S)-2-methyl-4-({2-[4-(trifluoromethyl)phenyl](1,3-oxazol-5-yl)}methyl)piperazinyl]-1-(2-methylbenzothiazol-5-yloxy)propan-2-ol”: 0.37 µM. On the same count and under the same terms, then “(2R)-1-[(3S)-3-methyl-4-({2-[4-(trifluoromethyl)phenyl](1,3-thiazol-4-yl)}methyl)piperazinyl]-3-(2-methylbenzothiazol-5-yloxy)propan-2-ol”, with 0.21 µM. For “(2R)-3-(2-methylbenzothiazol-5-yloxy)-1-{4-[(2-phenyl(1,3-thiazol-4-yl))methyl]piperazinyl}propan-2-ol”, the IC50 worked out at 2.7 µM. On the same count and under the same terms, the same measure for `Cc1nc2cc(OC[C@H](O)CN3CCN(Cc4nc(-c5ccc(Cl)cc5Cl)no4)C[C@@H]3C)ccc2s1` [(2R)-1-((2S)-4-{[3-(2,4-dichlorophenyl)(1,2,4-oxadiazol-5-yl)]methyl}-2-methylpiperazinyl)-3-(2-methylbenzothiazol-5-yloxy)propan-2-ol]: 0.1 µM. Same read-out and setting: the same measure for “(2R)-1-(4-{[5-(4-chlorophenyl)(1,3,4-oxadiazol-2-yl)]methyl}piperazinyl)-3-(2-methylbenzothiazol-5-yloxy)propan-2-ol”: 8.5 µM. Same read-out and setting: then “(2R)-3-{(3S)-3-methyl-4-[(5-(3,4-dichlorophenyl)isoxazol-3-yl)methyl]piperazinyl}-1-(2-methylbenzothiazol-5-yloxy)propan-2-ol”, with 0.25 µM; and “(2R)-1-[(2S)-4-({5-[4-(tert-butyl)phenyl](1,3,4-oxadiazol-2-yl)}methyl)-2-methylpiperazinyl]-3-(2-methylbenzothiazol-5-yloxy)propan-2-ol”, with 0.39 µM.

With “(2R)-3-{(2S)-2-methyl-4-[(3-phenylisoxazol-5-yl)methyl]piperazinyl}-1-(2-methylbenzothiazol-5-yloxy)propan-2-ol”, the IC50 stood at 0.41 µM.

For “(2R)-3-{(3S)-3-methyl-4-[(5-(2-chlorophenyl)isoxazol-3-yl)methyl]piperazinyl}-1-(2-methylbenzothiazol-5-yloxy)propan-2-ol”, the IC50 is 0.06 µM. With “(2R)-1-(4-{[3-(2,4-dichlorophenyl)(1,2,4-oxadiazol-5-yl)]methyl}piperazinyl)-3-(2-methylbenzothiazol-5-yloxy)propan-2-ol”, the IC50 amounted to 1.14 µM.

Still in this experiment, the particulars now being: at 30 uM.
“(2R)-3-(2-methylbenzothiazol-5-yloxy)-1-[4-({5-[3-(trifluoromethyl)phenyl](1,2,4-oxadiazol-3-yl)}methyl)piperazinyl]propan-2-ol”: the “Effect on Palmitoyl CoA Oxidation, % at 30 uM” value is 58% at 30 uM.
